Experiment [1] relates to EV-A71. Description: Virus attachment/entry assay in RD cells. The experiment is classed as cell-based, Human enterovirus A71. The conditions noted are these: 10 µM, MOI 5. How it is done: After 2 hpi, the infectious inoculum was removed, and cell lysates were collected. The intracellular viral RNA load was then determined using RT-qPCR analysis. […] The cell lysates were then collected to detect the intracellular viral gene copy by RT-qPCR analysis.
Fig. S5. […] (A) EV-A71 inactivation assay. […] (B) EV-A71 attachment assay. […] After 2 hpi, the infectious inoculum was removed and cells were washed again. The intracellular viral RNA load was then determined using RT-qPCR analysis. (C) EV-A71 entry assay.

In experiment [2] the test system is EV-A71. Description: Flow cytometry of VP1-positive EV-A71-infected RD cells. The conditions noted are these: 10 μM, MOI 2, 6 and 9 hpi. Format: cell-based, Human enterovirus A71. The protocol: Flow cytometry analysis was performed according to the standard protocol as described previously ([28]). In brief, the infected or mock-infected RD cells were dissociated with 10 mM EDTA and then fixed with 4% paraformaldehyde for 30 min. After permeabilization, the cells were incubated with rabbit anti‐VP1 antibody (GeneTex, GTX132339), followed by labeling with FITC-conjugated goat anti-rabbit IgG (Beyotime, P0176). Flow cytometry analysis was performed using a BD Fortessa flow cytometer (BD Biosciences), and the data were analyzed using FlowJo v.10 (Tree Star, USA).
Fig. S4. […] Then the infected- and mock-infected RD cells were fixed, labeled, and applied to flow cytometry to evaluate the percentage of VP1-positive cells at 0, 3, 6 and 9 hpi. […] Mean and SD of three independent experiments are presented (B and C). *p < 0.05; **p < 0.01.
For orientation: Flow cytometry measures light scatter and fluorescence of single cells or particles in a stream.

Experiment [3] has as its system EV-A71. Description: Multi-cycle virus growth assay in RD cells (TCID50). The conditions noted are these: 10 µM, MOI 0.01, entire time-course. The experiment is classed as cell-based, Human enterovirus A71. From the text:
RD cells were infected with EV‐A71 at an MOI of 0.01. Viral titers in cell culture supernatants were quantified by TCID50 assay at indicated time points. […] RD cells were infected with EV‐A71 at an MOI of 1. […] At 12 hpi, the cells were lysed for detecting mRNA expression levels of proinflammatory cytokines and chemokines. IL-6, interleukin 6; IL-8, interleukin 8; TNF-α, tumor necrosis factor-α.

The test system of experiment [4] is EV-A71. Briefly: Cytopathic effect (CPE) inhibition assay in RD cells. The experiment is classed as cell-based, Human enterovirus A71. As to conditions: Enterovirus A, EVA71, RD, read-out: EC50, compound concentration required to achieve 50% protection from virus-induced cytopathogenicity. (In general: Damage to the host cells serves as the signal in cytopathic effect assays.)

The next experiment relates to CVA10. Description: Antiviral activity against CVA10 in RD cells (RT-qPCR, TCID50). The experiment is classed as cell-based, coxsackievirus A10. As to conditions: 10 µM, 0.1 MOI, 24 h. The protocol: (§1) Detection of cellular mRNA expression and viral load was performed as described previously ([24]). In brief, the infected or mock-infected cells were lysed and applied to total RNA extraction by using the MiniBEST Universal RNA Extraction Kit (TaKaRa, Code No.9767). Viral RNA in the supernatant was extracted with the MiniBEST Viral RNA Extraction Kit (TaKaRa, Code No.9766). Reverse transcription was performed using the PrimeScript RT reagent Kit (TaKaRa, Code No.PR037A) with an oligo (dT) primer. The resultant cDNAs were used for qPCR assay with the Light Cycler 480 SYBR Green I Master Mix (Roche) to measure the mRNA expression level of cellular genes or viral load in supernatants. The relative viral gene copy was determined by RT-qPCR, using GAPDH as an internal reference.
(§2) The viral titer in the indicated samples was determined by TCID50 assay as described previously ([25]). Briefly, serially diluted samples from 10^−1 to 10^−8 in DMEM were inoculated to RD cells, BGMK cells, or MRC-5 in 96‐well plates. The cells were then incubated for 2 to 3 days at 37°C. TCID50 was calculated by counting the wells with cytopathic effect in infected cells using the Reed–Muench method.
(§3) The viral gene copy in the cell lysate is normalized with the transcript of GAPDH and presented. Viral titers were also detected by TCID50 assay. […] All experiments were independently repeated thrice.
In general terms: In qPCR the cycle at which signal appears reflects the starting amount.

The subject of the next experiment is HRV-A. Description: Antiviral activity against HRV-A in MRC-5 cells (RT-qPCR, TCID50). Format: cell-based, human rhinovirus A. As to conditions: 10 µM, 0.1 MOI, 24 h. The protocol:
as §1, §2, §3

Another experiment deals with CVB1. Briefly: Antiviral activity against CVB1 in BGMK cells (RT-qPCR, TCID50). The conditions noted are these: 10 µM, 0.1 MOI, 24 h. Format: cell-based, coxsackievirus B1. The protocol:
as §1, §2, §3

In a further experiment the test system is Akt phosphorylation. Description: Western blot of phosphorylated Akt and total Akt in RD cells. The experiment is classed as cell-based. The protocol:
Western blot analysis was performed as described previously ([26]). In brief, the indicated cell samples were lysed in RIPA buffer supplemented with protease inhibitors (Thermo Fisher Scientific, 78430). The cell lysates were then separated in 10% SDS-PAGE and transferred to a 0.45-µm nitrocellulose membrane. After blocking, the membrane was incubated with an against VP1 antibody (GeneTex, GTX132339), VEGFR1 antibody (Abcam, ab32152), VEGFR2 antibody (Abcam, ab134191), phosphorylated VEGFR2 antibody (Tyr951) (CST 4991), VEGFR3 antibody (Beyotime, AF6918), Akt antibody (CST 4685), phosphorylated Akt antibody (CST 4060), or GAPDH antibody (GeneTex, GTX627408) diluted 1:5,000 in primary antibody dilution buffer overnight at 4°C, followed by corresponding secondary staining. The blots were visualized by western horseradish peroxidase substrate and imaged with Gel Doc XR+.
Fig. S8. Viral reduction in RD cells with Akt inhibitor treatment. […] Significant inhibition of EV-A71 infection was found for both cell lysate (left) and supernatant (middle) using RT-qPCR analysis. The results represent the viral load in the cells treated with MK-2206 relative to that in DMSO-treated cells. Viral titer was also determined for inhibitor-treated samples in TCID50 assays (right). […] (C) The levels of VP1, phosphorylated Akt and total Akt protein were measured for samples treated with DMSO or MK-2206 using western blotting.
Fig. S9. […] (A) RD cells were infected with EV-A71 at an MOI of 1, and cell lysates were collected at the indicated times. Western blotting assays were then performed to assess the levels of phosphorylated Akt and total Akt. (B)The plasmids pVEGFR2 or pEmpty vector were transfected into RD cells. At the indicated times post-transfection, cells were harvested to detect the expression levels of phosphorylated Akt and total Akt by western blotting. […] Western blotting assays were then performed to assess the levels of phosphorylated Akt and total Akt. […] At 1 hpi, cells were harvested to detect the expression levels of phosphorylated Akt and total Akt by western blotting. […]

The test system of the next experiment is VEGFR1. The arrangement: method as in PMID 17620431. The conditions noted are these: cited from earlier work.

For `Cc1ccc(Nc2nccc(N(C)c3ccc4c(C)n(C)nc4c3)n2)cc1S(N)(=O)=O` [Pazopanib], the “effect on viral attachment/entry (EV-A71 mRNA levels in cell lysates)” value with EV-A71 [1] is reported as “did not affect the viral attachment/entry stage”. Further, the “percentage of EV-A71-infected RD cells” value in the experiment on EV-A71 [2] is listed as “markedly decreased”. Moreover, the “decrease of viral titers in the cell supernatant vs DMSO” value in the experiment on EV-A71 [3] is given as “over 4 logs”. Besides, the EC50 in the experiment on EV-A71 [4] was 890 ± 20 nM. The “viral load and viral titer of CVA10 in cell lysates and supernatants” value with CVA10 is recorded as “significantly reduced”. Further, the “HRV-A replication (viral loads in cell lysate and supernatant)” value in the experiment on HRV-A is listed as “slight but significant inhibition”. In addition, in the experiment with CVB1, the “decrease in viral load and viral titer” value is “over 2 logs”. In the experiment on Akt phosphorylation (10 µM pretreatment), the “Akt phosphorylation in mock-infected cells” value is recorded as “significantly attenuated Akt phosphorylation”. Further, in the experiment on Akt phosphorylation (10 µM, MOI 1, 1 hpi), the “EV-A71-stimulated Akt phosphorylation” value was “inhibited”. The IC50 (in general, the concentration needed to halve the response being measured) with VEGFR1 was 10 nM.

Source of the values: publication PMC11542593, “Vascular endothelial growth factor receptor 2 as a potential host target for the inhibition of enterovirus replication” (Journal of Virology, 2024).
